One test has as its system Candida albicans. The test can be described thus: Antimicrobial activity against Candida albicans clinical isolate at 0.005 to 0.4 umol/ml after 24 hrs by broth dilution assay. In kind it is functional, organism-based.
The subject of another test is Human alphaherpesvirus 1. As to the kind of experiment: Antiviral activity against Herpes simplex virus 1 infected in human KB cells assessed as inhibition of virus induced cytopathic effects at 1 to 1000 ug/ml after 72 hrs. Type of test: functional, organism-based. (Cytopathic effects are the visible damage that an infection or toxin causes in cultured cells.)
In another test the test system is KB. The test can be described thus: Antiviral activity against Rhinovirus type 13 infected in human KB cells assessed as inhibition of virus-induced cytopathic effect at 1 to 1000 ug/ml after 72 hrs. Type of test: functional, cell-based. As to conditions: Human rhinovirus A13.
Another test concerns Human respirovirus 3. As to the kind of experiment: Antiviral activity against Parainfluenza virus type 3 infected in human KB cells assessed as inhibition of virus-induced cytopathic effect at 1 to 1000 ug/ml after 72 hrs. Type of test: functional, organism-based.
The subject of a further test is Escherichia coli. The test can be described thus: Antimicrobial activity against Escherichia coli clinical isolate at 0.005 to 0.4 umol/ml after 24 hrs by broth dilution assay. Type of test: functional, organism-based. (In broth dilution the organism is exposed to a series of concentrations in liquid medium.)
A further test has as its system Klebsiella pneumoniae. As to the kind of experiment: Antimicrobial activity against Klebsiella pneumoniae clinical isolate at 0.005 to 0.4 umol/ml after 24 hrs by broth dilution assay. Type of test: functional, organism-based.
A further test concerns Proteus mirabilis. The test can be described thus: Antimicrobial activity against Proteus mirabilis clinical isolate at 0.005 to 0.4 umol/ml after 24 hrs by broth dilution assay. In kind it is functional, organism-based.
Test [1] relates to Staphylococcus aureus. The test can be described thus: Antimicrobial activity against Staphylococcus aureus clinical isolate at 0.005 to 0.4 umol/ml after 24 hrs by broth dilution assay. Type of test: functional, organism-based.
Test [2] relates to Trichophyton mentagrophytes. The test can be described thus: Antimicrobial activity against Trichophyton mentagrophytes clinical isolate at 0.005 to 0.4 umol/ml after 48 hrs by broth dilution assay. In kind it is functional, organism-based.
In test [3] the test system is Staphylococcus aureus. The test can be described thus: Antimicrobial activity against Staphylococcus aureus clinical isolate after 24 hrs by broth dilution assay. Type of test: functional.
In test [4] the test system is Trichophyton mentagrophytes. As to the kind of experiment: Antimicrobial activity against Trichophyton mentagrophytes clinical isolate after 48 hrs by broth dilution assay. Type of test: functional.

In ChEMBL document CHEMBL3272307, “Imidazo(1,2-c)pyrimidine nucleosides. Synthesis and biological evaluation of certain 1-(beta-D-arabinofuranosyl)imidazo(1,2-c)pyrimidines” (1976) one finds Activity and MIC data, which are given here for eight compounds.

Structures are written as SMILES. Values after ≈ are worked out from the molar mass of the structure shown. Active and inactive are the calls of the source. The calls are words filed in the database; no cut-off is given here.

Broadly, the MIC is the lowest concentration that inhibits growth of the organism. Lower therefore signals greater potency.

As for `Cl[C@H]1O[C@H](COCc2ccccc2)[C@@H](OCc2ccccc2)[C@@H]1OCc1ccccc1`, the result with Candida albicans, with Human alphaherpesvirus 1, in the test on KB, with Human respirovirus 3, in the test with Escherichia coli and with Klebsiella pneumoniae was inactive. Moreover, the outcome (with Proteus mirabilis; in the test on Staphylococcus aureus [1]; in [2]) was inactive.
`Nc1cc2n([C@@H]3O[C@H](COCc4ccccc4)[C@@H](OCc4ccccc4)[C@@H]3OCc3ccccc3)ccn2c(=O)n1`: the MIC is 160 µM (≈ 88.4 µg/mL) against Staphylococcus aureus [3] and 40 µM (≈ 22.1 µg/mL) in test [4]. The outcome in the test on Candida albicans, with Human alphaherpesvirus 1, in the test on Human respirovirus 3, in the test with Escherichia coli, in the test with Klebsiella pneumoniae and in the test with Proteus mirabilis was inactive. In addition, the result in the test with KB was Active.
In the case of `O=c1nccc2n([C@@H](CO)OC(CO)CO)ccn12`, the result in the test with Candida albicans, in the test on Human alphaherpesvirus 1, with KB, in the test with Human respirovirus 3, with Escherichia coli and with Klebsiella pneumoniae was inactive. Also, the result (with Proteus mirabilis; in the test with Staphylococcus aureus [1]; in test [2]) was inactive.
Turning to `O=c1nccc2n([C@@H]3O[C@H](COCc4ccccc4)[C@@H](OCc4ccccc4)[C@@H]3OCc3ccccc3)ccn12`, the MIC amounted to 160 µM (≈ 86 µg/mL) in the test on Staphylococcus aureus [3] and 40 µM (≈ 21.5 µg/mL) in test [4]. Besides, the outcome in the test on Candida albicans, with Human alphaherpesvirus 1, in the test on Human respirovirus 3, in the test on Escherichia coli, in the test on Klebsiella pneumoniae and in the test with Proteus mirabilis was inactive. Moreover, the outcome in the test on KB was Active.
As for `O=c1nc(Cl)cc2n([C@@H]3O[C@H](COCc4ccccc4)[C@@H](OCc4ccccc4)[C@@H]3OCc3ccccc3)ccn12`, the result in the test with Candida albicans, with Human alphaherpesvirus 1, in the test on KB, in the test with Human respirovirus 3, with Escherichia coli and with Klebsiella pneumoniae was inactive. Besides, the outcome (in the test on Proteus mirabilis; with Staphylococcus aureus [1]; in test [2]) was inactive.
On to `Nc1cc2n([C@@H]3O[C@H](CO)[C@@H](O)[C@@H]3O)ccn2c(=O)n1`, for which the result with Candida albicans, in the test on Human alphaherpesvirus 1, with KB, in the test on Human respirovirus 3, in the test on Escherichia coli and with Klebsiella pneumoniae was inactive. Besides, the outcome (in the test with Proteus mirabilis; in the test with Staphylococcus aureus [1]; in test [2]) was inactive.
As to `O=c1nccc2n([C@@H]3O[C@H](CO)[C@@H](O)[C@@H]3O)ccn12`, the outcome with Candida albicans, in the test with Human alphaherpesvirus 1, in the test on KB, with Human respirovirus 3, in the test with Escherichia coli and with Klebsiella pneumoniae was inactive. Besides, the result (with Proteus mirabilis; in the test on Staphylococcus aureus [1]; in [2]) was inactive.
Turning to `C[Si](C)(C)Oc1nc(Cl)cc2nccn12`, the outcome in the test on Candida albicans, with Human alphaherpesvirus 1, in the test on KB, with Human respirovirus 3, with Escherichia coli and with Klebsiella pneumoniae was inactive. Moreover, the result (in the test on Proteus mirabilis; in the test on Staphylococcus aureus [1]; in test [2]) was inactive.
